# How the values were obtained:
# Assay in all cases: Test F preemergence
# Settings in all cases: 21 days, scale 0 to 100
# [1] = system: wild poinsettia; type: in vivo, Euphorbia heterophylla
# Description: (§1) Seeds of plant species selected from bermudagrass (Cynodon dactylon), surinam grass (Brachiaria decumbens), large (Lg) crabgrass (Digitaria sanguinalis), crabgrass, naked (naked crabgrass, Digitaria nuda), foxtail, green (green foxtail, Setaria viridis), johnsongrass (Sorghum halepense), kochia (Kochia scoparia), morningglory (pitted morningglory, Ipomoea lacunosa), nutsedge, purple (purple nutsedge, Cyperus rotundus), ragweed (common ragweed, Ambrosia elatior), mustard, black (black mustard, Brassica nigra), guineagrass (Panicum maximum), dallisgrass (Paspalum dilatatum), barnyardgrass (Echinochloa crus-galli), sandbur (southern sandbur, Cenchrus echinatus), sowthistle (common sowthistle, Sonchus oleraceous), Italian ryegrass (Lolium multiflorum), signalgrass (broadleaf signalgrass, Brachiaria platyphylla), dayflower (Virginia (VA) dayflower, Commelina virginica), bluegrass (annual bluegrass, Poa annua), quackgrass (Elytrigia repens), mallow (common mallow, Malva sylvestris), buckwheat, wild (wild buckwheat, Polygonum convolvulus), leafy spurge (Euphorbia esula), chickweed (common chickweed, Stellaria media), wild poinsettia (Euphorbia heterophylla), and pigweed (Amaranthus retroflexus) were planted into a blend of loam soil and sand and treated preemergence with test chemicals formulated in a non-phytotoxic solvent mixture which included a surfactant.
# (§2) Treated plants and controls were maintained in a greenhouse for 21 days, after which time all species were compared to controls and visually evaluated. Plant response ratings, summarized in Table F, are based on a scale of 0 to 100 where 0 is no effect and 100 is complete control. A dash (-) response means no test result.
# [2] = system: pigweed; type: in vivo, Amaranthus retroflexus
# Description: as §1, §2
# [3] = system: sandbur; type: in vivo, Cenchrus echinatus
# Description: as §1, §2
# [4] = system: mallow; type: in vivo, Malva sylvestris
# Description: as §1, §2
Compound,"Plant response rating, Poinsettia, Wild ([1]; 16 g ai/ha)","Plant response rating, Poinsettia, Wild ([1]; 31 g ai/ha)","Plant response rating, Poinsettia, Wild ([1]; 62 g ai/ha)","Plant response rating, Poinsettia, Wild ([1]; 125 g ai/ha)","Plant response rating, Poinsettia, Wild ([1]; 250 g ai/ha)","Plant response rating, Pigweed ([2]; 16 g ai/ha)","Plant response rating, Pigweed ([2]; 31 g ai/ha)","Plant response rating, Pigweed ([2]; 62 g ai/ha)","Plant response rating, Pigweed ([2]; 125 g ai/ha)","Plant response rating, Pigweed ([2]; 250 g ai/ha)","Plant response rating, Sandbur ([3]; 16 g ai/ha)","Plant response rating, Sandbur ([3]; 31 g ai/ha)","Plant response rating, Sandbur ([3]; 62 g ai/ha)","Plant response rating, Sandbur ([3]; 125 g ai/ha)","Plant response rating, Sandbur ([3]; 250 g ai/ha)","Plant response rating, Mallow ([4]; 16 g ai/ha)","Plant response rating, Mallow ([4]; 31 g ai/ha)","Plant response rating, Mallow ([4]; 62 g ai/ha)","Plant response rating, Mallow ([4]; 125 g ai/ha)","Plant response rating, Mallow ([4]; 250 g ai/ha)"
"N#Cc1cccc(Oc2ncc(F)cn2)c1-n1cc(C(F)(F)F)cn1 [Compound 79, 3-[(5-fluoro-2-pyrimidinyl)oxy]-2-[4-(trifluoromethyl)-1H-pyrazol-1-yl]benzonitrile]",50,85,98,100,100,100,100,100,100,100,10,15,95,98,100,98,100,100,100,100
N#Cc1cccc(Oc2ncc(Cl)cn2)c1-n1cc(OC(F)F)cn1 [Compound 97],10,20,75,98,98,100,100,100,100,100,0,10,25,100,100,30,75,98,100,100
